{
  "source": "patent US6231894A",
  "about": "“Treatments based on discovery that nitric oxide synthase is a paraquat diaphorase” (Duke University, priority 1999, dated 2001)",
  "tested_on": "rat NOS1",
  "experiment": "Anaerobic reduction of paraquat by NOS1 at 600 nm; Hanes plot",
  "type": "biochemical",
  "experimental": "Anaerobic reduction of paraquat by NOS1 to paraquat.^+ was followed at 600 nm spectrophotometrically and converted to a concentration using the extinction coefficient E600 =13,700 M^-1 cm^-1. Reactions (1 ml) were performed in the NADPH oxidation buffer described above in the absence of L-arginine, dithiothreitol and tetrahydrobiopterin. Reactions were initiated by the addition of 2 U of NOS1 and followed for 3 minutes at 37° C.",
  "data": [
    {"smiles": "C[n+]1ccc(-c2cc[n+](C)cc2)cc1", "note": "[paraquat]", "values": [
      {"measurement": "paraquat reductase activity (Hanes plot)", "setting": "FIG. 1(d)", "value": "increased paraquat reduction with increasing paraquat concentration"},
      {"measurement": "reduction of paraquat to its cation radical (600 nm)", "setting": "anaerobic, without L-arginine, 37° C., 3 minutes, FIG. 1(c)", "value": "direct and progressive reduction of paraquat to its cation radical"}
    ]}
  ]
}
